Paper PMC3574584 (Journal of medicinal chemistry, 2013)
“Also recorded” adds a separate entry of the source.

System: Raw264.7 cells expressing mPTPB
Experiment: Akt phosphorylation by Western blotting
Assay type: cell-based, mouse
Settings: mPTPB expressing Raw264.7 macrophages, IFN-γ 200 U/ml; 6c at 240 nM

O=C(O)c1cc2c(C#Cc3cccc(C(F)(F)F)c3)c(-c3ccccc3)oc2cc1O [Compound 4g, 6-hydroxy-2-phenyl-3-((3-(trifluoromethyl)phenyl)ethynyl)benzofuran-5-carboxylic acid]
Akt activity (phospho-Akt): normalized; also recorded: blocks

O=C(O)c1cc2c(CCc3ccc(OC(F)(F)F)cc3)c(-c3ccccc3)oc2cc1O [Compound 6c, 6-hydroxy-2-phenyl-3-(4-(trifluoromethoxy)phenethyl)benzofuran-5-carboxylic acid]
Akt activity (phospho-Akt): unable to reverse
